These results are taken from EP0573652A1, “REMEDY FOR RENAL DISEASES” (FUJISAWA PHARMACEUTICAL CO., LTD., priority 1991, dated 1992).

Like-named read-outs stand apart in the source and are kept apart here.

Data set [1] concerns cynomolgus monkeys. The data set is described as follows: Effects on increasing renal blood flow (anesthetized, furosemide-pretreated monkeys, electromagnetic blood flowmeter). In kind it is in vivo. Particulars: Dose 0.32 mg/kg intravenously; anesthetized cynomolgus monkeys given furosemide. On the procedure: Male and female cynomolgus monkeys weighing 2.0-4.8 kg were fed with conventional diet were given furosemide 10 mg/kg subcutaneously and 5 mg/kg intravenously on the previous day and the day of dosing with the test compound respectively. The animals were anesthetized with sodium pentobarbital (20 mg/kg, i.v.) and were maintained at a stable anesthetic level by continuous infusion of the anesthetic at a rate of 6 mg/kg/hr. After fixing the animals on the bench at 37°C, right femoral artery was catheterized for recording of the mean arterial blood pressure using a pressure transducer and left femoral vein was also catheterized for injection of the drug. Left renal artery was installed with an electromagnetic probe for recording renal blood flow using an electromagnetic blood flowmeter. When blood pressure, heart rate and renal blood flow, became sufficiently stable, the test compound dissolved in physiological saline was intravenously given at a rate of 0.2 ml/kg.

The test system of data set [2] is cynomolgus monkeys. The data set is described as follows: Diuretic effects (urine volume, urinary electrolytes, renal plasma flow, glomerular filtration rate in anesthetized monkeys). In kind it is in vivo. The settings on record: at 15 min. after dosing, Control : 100%; for Increasing % of glomerular filtration rate: calculated from inulin concentrations; for Increasing % of renal plasma flow: calculated from paraaminohypuric acid concentrations. On the procedure:
Female cynomolgus monkeys weighing 3.2 - 3.9 kg were anesthetized with sodium pentobarbital (20 mg/kg, i.v.) and were maintained at a stable anesthetic level by continuous infusion of the anesthetic at a rate of 4 mg/kg/hr, and then right saphenous vein was catheterized for intravenous infusion. […] Under monitoring blood pressure, urine samples were taken from bladder by catheter and blood samples were taken from right brachial vein. After 90 min. when urine volume, blood, paraaminohypuric acid and inulin concentrations became stable, blood and urine samples were taken to measure concentrations of paraaminohypuric acid and inulin 45 min. before and 15, 30, 45 and 60 min. after dosing with the test compound. Urine volume and urinary electrolytes were measured and the renal plasma flow and glomerular filtration rate values were calculated from respective paraaminohypuric acid and inulin concentrations in the blood and urine samples.

Another data set can be described thus: Acute toxicity test. Particulars: Crj:CD(SD), rat, in vivo, iv, intravenously, observed for 14 days, probit method, read-out: LD₅₀. Also on record: species or system rats (Crj:CD(SD) strain). As to the method:
Five rats (Crj:CD(SD) strain) of either sex were used per group. Solutions of the test compound in physiological saline were administered to rats intravenously. The rats were then observed for 14 days. The LD₅₀ values were calculated by the probit method.

On to `CC(C)CC[C@H](O)[C@H](CC1CCCCC1)NC(=O)[C@H](Cc1c[nH]cn1)N(C)C(=O)[C@H](Cc1ccccc1)OC(=O)N(C)CCC(=O)N1CCOCC1.Cl` [(1), 2(S)-[N^α-[2(S)-{N-(2-morpholinocarbonylethyl)-N-methylaminocarbonyloxy}-3-phenylpropionyl]-N^α-methyl-L-histidyl]amino-1-cyclohexyl-3(S)-hydroxy-6-methylheptane hydrochloride], for which, in the data set on cynomolgus monkeys [1], the “Maximum decreasing % of renal vascular resistance” value (“Maximum decreasing %” for short) is given as “+19.3%” and the “Maximum increasing % of renal blood flow” value was “+17.1%”. Moreover, in the data set with cynomolgus monkeys [2] (Dose 3.2 mg/kg), the “Increasing % of Cl⁻ excretion” value is 417%, the “Increasing % of K⁺ excretion” value was determined as 135%, the “Increasing % of Na⁺ excretion” value was determined as 223% and the “Increasing % of urine volume” value is reported as 259%. In the data set with cynomolgus monkeys [2] (Dose 3.2 mg/kg), the “Increasing % of glomerular filtration rate” value is 122% and the “Increasing % of renal plasma flow” value is on record as 149%. For the same compound, in “Acute toxicity test” (Female rats), the LD50 at 14 days is 93.3 mg/kg. Further, the LD50 at 14 days in “Acute toxicity test” (Male rats) was 81.2 mg/kg.
As for `CC(C)CC[C@H](O)[C@H](CC1CCCCC1)NC(=O)[C@H](Cc1c[nH]cn1)N(C)C(=O)[C@H](Cc1ccccc1)OC(=O)N(C)CCN(C)C(=O)N1CCOCC1.Cl` [(2), 2(S)-[N^α-[2(S)-[N-methyl-N-[2-{N-(morpholinocarbonyl)-N-methylamino)ethyl]aminocarbonyloxy]-3-phenylpropionyl]-N^α-methyl-L-histidyl]amino-1-cyclohexyl-3(S)-hydroxy-6-methylheptane hydrochloride], in the data set on cynomolgus monkeys [1], the “Maximum decreasing %” value was “+35.5%” and the “Maximum increasing % of renal blood flow” value is recorded as “+33.8%”. Moreover, in the data set with cynomolgus monkeys [2] (Dose 1.0 mg/kg), the “Increasing % of Cl⁻ excretion” value is listed as 466%, the “Increasing % of K⁺ excretion” value was found to be 169%, the “Increasing % of Na⁺ excretion” value was found to be 205% and the “Increasing % of urine volume” value worked out at 202%. In the data set with cynomolgus monkeys [2] (Dose 1.0 mg/kg), the “Increasing % of glomerular filtration rate” value is listed as 156% and the “Increasing % of renal plasma flow” value is on record as 169%. Besides, the LD50 at 14 days in the data set “Acute toxicity test” (Female rats) was found to be 69 mg/kg. In addition, the LD50 at 14 days in the data set “Acute toxicity test” (Male rats) is 55 mg/kg.
With `C[C@H](CS)C(=O)N1CCC[C@H]1C(=O)O` [(A), Captopril, reference compound], the “Maximum decreasing %” value with cynomolgus monkeys [1] is recorded as “+11.5%”. In addition, the “Increasing % of glomerular filtration rate” value in the data set with cynomolgus monkeys [2] (Dose 3.2 mg/kg) was 114%.
